Measured values: US20260200939A1, “MOLECULAR GLUE DEGRADER COMPOUNDS AND USES THEREOF” (Novartis AG, priority 2022, published 2026)

Experiments:
[1] = target: T1, BRD4 long (Homo sapiens, UniProt O60885); experiment: BRD4 (long) degradation assay, Western blotting; assay type: cell-based; conditions: HEK293T cells
T1 construct: endogenous in cells; host or cells: HEK293T
How it was run: (§1)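 Cell lines were grown at 37° C with 5% CO2 (HEK293T and C33A in DMEM, A549 in F-12K, 22RV1, LNCaP and Mino in RPMI-1640, K562 and MV-4-11 in IMDM, all with 10% FBS). Lysates were BCA-normalized, then SDS/PAGE Western blots were probed with target-specific antibodies and read by IR680/IR800 fluorescent secondaries on Li-Cor.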

[2] = target: T2, BRD4 short (Homo sapiens, UniProt O60885); experiment: BRD4 (short) degradation assay, Western blotting; assay type: cell-based; conditions: HEK293T cells
T2 construct: endogenous in cells; host or cells: HEK293T
How it was run: as §1

[3] = system: HEK293T cells; experiment: Quantitative TMT proteomic profiling in HEK293T cells; assay type: cell-based
Protocol: Cells were treated with either DMSO vehicle or compound (Compound 130, 1 μM) for 24 h and lysate was prepared as described above. Briefly, 25-100 μg protein from each sample was reduced, alkylated and tryptically digested overnight. Individual samples were then labeled with isobaric tags using commercially available TMTsixplex (Thermo Fisher Scientific, P/N 90061) kits, in accordance with the manufacturer's protocols. Tagged samples (20 μg per sample) were combined, dried with SpeedVac, resuspended with 300 μL 0.1% TFA in H2O, and fractionated using high pH reversed-phase peptide fractionation kits (Thermo Scientific, P/N 84868) according to manufacturer's protocol. Fractions were dried with SpeedVac, resuspended with 50 μL 0.1% FA in H2O, and analyzed by LC-MS/MS as described below.
Quantitative TMT-based proteomic analysis was performed as previously described using a Thermo Eclipse with FAIMS LC-MS/MS (King, E. A. et al. Chemoproteomics-Enabled Discovery of a Covalent Molecular Glue Degrader Targeting NF-κB. 2022.05.18.492542 Preprint at https://doi.org/10.1101/2022.05.18.492542 (2022)). […] Only peptide-to-spectrum matches that are unique assignments to a given identified protein within the total dataset are considered for protein quantitation. […]

[4] = target: T3, Recombinant RNF126 (Homo sapiens, UniProt Q9BV68); experiment: RNF126 Binding Assay, gel-based ABPP
T3 construct: FLAG (C); host or cells: HEK293T
T3 sequence (Q9BV68 whole entry): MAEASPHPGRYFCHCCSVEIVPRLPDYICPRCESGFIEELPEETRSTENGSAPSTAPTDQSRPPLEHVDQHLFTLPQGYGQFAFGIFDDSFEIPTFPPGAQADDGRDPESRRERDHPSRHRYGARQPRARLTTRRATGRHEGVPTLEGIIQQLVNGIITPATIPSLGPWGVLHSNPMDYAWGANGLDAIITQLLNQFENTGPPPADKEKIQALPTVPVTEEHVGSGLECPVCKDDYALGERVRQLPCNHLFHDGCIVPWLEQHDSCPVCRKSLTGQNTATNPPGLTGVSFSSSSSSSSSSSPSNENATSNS
How it was run: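 FLAG-tagged human RNF126, expressed in HEK293T and purified on anti-FLAG resin, was pretreated with DMSO or covalent ligand for 30 min at 37 °C in PBS. IA-rhodamine was then added for 1 h at RT in the dark. Probe labelling was read by SDS-PAGE in-gel fluorescence.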

[5] = target: T4, BTK (Homo sapiens, UniProt Q06187); experiment: BTK degradation in MINO lymphoma cancer cells, Western blotting; assay type: cell-based
T4 construct: endogenous in cells; host or cells: Mino
T4 sequence (Q06187 whole entry): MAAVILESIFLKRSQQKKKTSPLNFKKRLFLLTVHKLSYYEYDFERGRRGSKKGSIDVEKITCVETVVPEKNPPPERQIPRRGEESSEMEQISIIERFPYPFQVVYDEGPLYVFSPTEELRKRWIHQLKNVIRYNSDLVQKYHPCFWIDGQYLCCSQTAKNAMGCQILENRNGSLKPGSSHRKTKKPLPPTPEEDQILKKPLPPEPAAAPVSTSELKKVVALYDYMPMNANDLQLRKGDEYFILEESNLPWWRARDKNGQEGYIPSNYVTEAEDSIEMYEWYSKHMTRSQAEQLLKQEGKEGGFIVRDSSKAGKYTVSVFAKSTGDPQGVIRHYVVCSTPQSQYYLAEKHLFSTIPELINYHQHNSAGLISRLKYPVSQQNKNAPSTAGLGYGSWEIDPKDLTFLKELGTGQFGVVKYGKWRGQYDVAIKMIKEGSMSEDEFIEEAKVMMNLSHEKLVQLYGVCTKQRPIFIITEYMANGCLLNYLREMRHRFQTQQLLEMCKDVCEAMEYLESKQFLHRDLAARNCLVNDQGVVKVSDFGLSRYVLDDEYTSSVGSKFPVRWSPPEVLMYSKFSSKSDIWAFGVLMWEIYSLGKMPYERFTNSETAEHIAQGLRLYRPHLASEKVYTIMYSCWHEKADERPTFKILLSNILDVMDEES
Protocol: C33A cells were purchased from American Type Culture Collection (ATCC) and were cultured in Dulbecco's Modified Eagle Medium (DMEM) containing 10% (v/v) fetal bovine serum (FBS) and maintained at 37° C. with 5% CO2. 22RV1 cells were purchased from the ATCC and were cultured in RPMI-1640 Medium containing 10% (v/v) FBS and maintained at 37° C. with 5% CO2. HEK293T cells were obtained from the UC Berkeley Cell Culture Facility and were cultured in DMEM containing 10% (v/v) FBS and maintained at 37° C. with 5% CO2. K562 cells were obtained from the UC Berkeley Cell Culture Facility and were cultured in Iscove's Modified Dulbecco's Medium (IMDM) containing 10% (v/v) FBS and maintained at 37° C. with 5% CO2. MV-4-11 cells were obtained from the ATCC and were cultured in IMDM containing 10% (v/v) FBS and maintained at 37° C. with 5% CO2. A549 cells were obtained from the ATCC and were cultured in F-12K Medium containing 10% (v/v) FBS and maintained at 37° C. with 5% CO2. Mino cells were obtained from the ATCC and were cultured in RPMI-1640 Medium containing 10% (v/v) FBS and maintained at 37° C. with 5% CO2. […]
Cells were washed twice with cold PBS, scraped, and pelleted by centrifugation (700 g, 5 min, 4° C.). […] Proteome concentrations were determined using BCA assay and lysate was diluted to appropriate working concentrations. […]

Row | SMILES | degradation of BRD4 long isoform, in words [1] | degradation of BRD4 short isoform, in words [2] | selectivity of degradation by quantitative proteomic profiling [3] | binding to RNF126 (gel-based ABPP), in words [4] | degradation of BTK, in words [5]
1 | COc1ccc(C(=O)/C=C/C(=O)N2CCN(C(=O)C[C@@H]3N=C(c4ccc(Cl)cc4)c4c(sc(C)c4C)-n4c(C)nnc43)CC2)cc1 [Compound 130, (S,E)-1-(4-(2-(4-(4-chlorophenyl)-2,3,9-trimethyl-6H-thieno[3,2-f][1,2,4]triazolo[4,3-a][1,4]diazepin-6-yl)acetyl)piperazin-1-yl)-4-(4-methoxyphenyl)but-2-ene-1,4-dione] | degradation of both the long and short isoforms of BRD4 in HEK293T cells in a dose-responsive, time-dependent, and proteasome-dependent manner | degradation of both the long and short isoforms of BRD4 in HEK293T cells in a dose-responsive, time-dependent, and proteasome-dependent manner | relatively selective degradation of BRD4 | potent binding | 
2 | COc1ccc(C(=O)/C=C/C(=O)N2CCC[C@@H](n3nc(-c4ccc(Oc5ccccc5)cc4)c4c(N)ncnc43)C2)cc1 [Compound 131] |  |  |  | potent binding | degradation of BTK in MINO lymphoma cancer cells
